Residues, ends and D or L forms follow the SMILES beside them. *: point of attachment. Boc = CC(C)(C)OC(=O)*; Bn = c1ccc(C*)cc1

For orientation: melting point means the temperature, or range, at which the solid turns liquid. For the compound `CC(=O)OCCc1ccc(NC(=O)CCCCl)cc1`, the melting point amounted to 83 °C.
With `Cc1ccccc1-c1cc(O)ccc1O`, the melting point fell in the range of 65 to 68 °C.
The figure for `CN(C(N)=O)c1cc(C(C)(C)C)on1` is 134 to 135 °C.
As to `Cc1cc(NC(=O)Cc2cccs2)nc(C)c1Br`, the melting point stood at 192 °C.
Compound `COc1ccc2cccc(C(CCO)CNC(=O)C3CC3)c2c1` (centres undefined) registered a melting point of 158 to 160 °C.
`Cc1cc([N+](=O)[O-])c(NCCO)c([N+](=O)[O-])c1` came in with a melting point of 131 °C.
Turning to `CN1C(=O)CC[C@]2(C)c3ccc(-c4ccc5c(c4)OCO5)cc3CC[C@@H]12`, the melting point fell in the range of 146 to 152 °C.
The compound `CCc1nn(C2CCCC2)c2cc(C(=O)O)ccc12` returned a melting point of 153 to 155 °C.
`NCC1COc2cc(Cl)cc(-c3ccccc3)c2N1` (centres undefined) showed a melting point of 92 °C.
`CC(=O)Nc1cc(Cl)c(C)cc1Br`: the melting point was in the range of 154 to 155 °C.
On to `CNC1NC(=O)N(C)C(=O)N1N` (centres undefined), for which the melting point lay in the range of 225 to 227 °C.
Take `OC(CCSC(=S)Nc1ccc(Cl)cn1)c1ccc(F)cc1` (centres undefined): the melting point stood at 86 °C.
In turn, `CCN(c1ccc(C)cc1)c1nc(=O)c2cccnc2s1` had a melting point of 158 °C.
Compound `CC(C)=CCNc1ncnc2nc(N(C)C)[nH]c12` gave a melting point of 246 to 249 °C.
`CCc1nn(-c2ccc(F)cc2)c2cc(C(=O)Nc3c(Cl)cncc3Cl)ccc12` registered a melting point of 197 to 199 °C.
Compound `CC(C)n1cnc2c(Nc3ccc(F)cc3)nc(Cl)nc21` displayed a melting point of 154 °C.
The compound `CCS(=O)(=O)c1nn2c(-c3ccc(OC)cc3)nnc2c2ccccc12` displayed a melting point of 210 to 213 °C.
In turn, `O=C(NOC(=O)Oc1ccccc1)Oc1ccccc1` returned a melting point of 80 to 82 °C.
In turn, `CC(C)Cn1c(=O)n(C)c(=O)c2c(SCCCO)c(C(=O)c3cccnc3)sc21` came in with a melting point of 152 to 155 °C.
The compound `Cn1c(C(F)(F)F)cc(=O)n(-c2ccc3snc(C(=O)NS(C)(=O)=O)c3c2)c1=O` displayed a melting point of 241 to 243 °C.
In the case of `CC(C)(C)OC(=O)Nc1ccc(-c2ccc(F)cc2)cc1NC(=O)CC(=O)c1sccc1C#N`, the melting point lay within 156 to 157 °C.
Take `Brc1ccc2cnncc2c1`: the melting point is 140 to 143 °C.
Regarding `CC(C)c1ccc(S(=O)(=O)Nc2cnc(I)cc2C(F)(F)F)cc1`, the melting point was 156 °C.
Consider `CC1(c2ccccc2)Cc2cc(O)c(Cl)c(Cl)c2C1O` (centres undefined), for which the melting point fell in the range of 163 to 165 °C.
`CCOC(=O)C(CCCCCCCCCCCCC(C(=O)O)C1CC1)C1CC1` (centres undefined): the melting point lay in the range of 36.9 to 38.2 °C.
In turn, `[N-]=[N+]=NCCc1ccc(C(N)=O)s1` yielded a melting point of 104 to 105 °C.
In turn, `Cc1cc2c(cc1O)C(C)(C)CC1(CC(C)(C)c3cc(OCCCC(=O)O)c(C)cc3O1)O2` (centres undefined) displayed a melting point of 173 to 174 °C.
Turning to `CNc1nc(-c2cccc(NC(=O)c3ccc(O)cc3)c2)c2cc(OC)c(OC)cc2n1`, the melting point is 178 to 180 °C.
As to `CCCc1c(OCCCOc2ccc(N)cc2)ccc(C(C)=O)c1O`, the melting point is 75 to 77 °C.
For `Clc1ccc2c(c1)CCc1cccc3c1C2CN=C3` (centres undefined) the value was 106 °C.
Compound `O=C1CCC(n2cnc3cc(F)ccc3c2=O)C(=O)N1` (centres undefined) showed a melting point of 296 to 298 °C.
For `COC(=O)C(C)Oc1cc(Cl)ccc1CO` (centres undefined) the value was 51 to 52 °C.
In turn, `Cc1nc(-n2c(C)ccc2C)nc(C)c1Br` had a melting point of 64 to 65 °C.
For `CCCCCCCCCCc1nnnn1CC(=O)Nc1c(C(C)C)cccc1C(C)C` the value was 71 to 73 °C.
The figure for `COc1cc(Nc2c(C#N)cnc3cc(C#Cc4cccnc4)sc23)c(Cl)cc1Cl` is 249 to 250 °C; for `COC(=O)C1=C(C)NC(C)=CC1c1ccccc1OCc1ccc(C)cc1` (centres undefined) it is 107 to 109 °C.
Compound `CC(n1ncn(-c2ccc(N3CCN(c4ccc(O)cc4)CC3)cc2)c1=O)C(F)(F)F` (centres undefined) registered a melting point of 215 °C.
Take `CC(=O)N1CCC(C)(C)C(=O)c2ccc(Cl)cc2CCC1=O`: the melting point was 113 to 115 °C.
The compound `COc1ccc(C(=O)N[C@@H](Cc2ccc(OC(=O)c3ccc(OC)cc3)cc2)C(=O)O)cc1` displayed a melting point of 171 to 174 °C.
For the compound `CCc1cc(Nc2ccc(Sc3ccc(O)cc3)cc2)nc(N)n1`, the melting point lay in the range of 181 to 184 °C.
Consider `CC(C)CC(NC(=O)C(Cc1ccc(OCc2ccccc2)cc1)NC(=O)OC(C)(C)C)C(=O)O` (centres undefined) (Boc-Tyr(Bn)-Leu-OH; configuration not given here), for which the melting point is 90 to 94 °C.
Regarding `Oc1c(F)cc(Cn2cc[nH]c2=S)cc1F`, the melting point stood at 188 °C.
`CC1(C)CC(SCc2c(Cl)nn(C(F)F)c2C(F)(F)F)=NO1` returned a melting point of 89 to 90 °C.
The compound `O=C1Nc2ccccc2N(C(=O)CN2C(=O)c3ccccc3C2=O)C2CCCC12` (centres undefined) displayed a melting point of 207 to 208 °C.
Compound `Clc1ncnc2ccoc12` returned a melting point of 122 °C.
In turn, `C=CCNc1nc(C2C(=O)Nc3ccc(C#N)cc32)c2cn(C3CCCC3)nc2n1` (centres undefined) displayed a melting point greater than 300 °C.
Compound `O=C=Nc1ccc(NCc2ccc(F)c(Cl)c2)c(C(F)(F)F)c1` had a melting point of 144 to 146 °C.
Take `CC12CCC(C(=Cc3ccc([N+](=O)[O-])cc3)C1=O)C2(C)C` (centres undefined): the melting point amounted to 158 °C.
In turn, `O=C(O)C1CCc2ccc(O)cc2C1` (centres undefined) showed a melting point of 170 to 171 °C.
The figure for `CCc1cccc(C)c1CNc1nc(C(=O)O)cc2c1nc(C)n2C` is 233 to 236 °C.
`COc1c(C)cnc(CSc2nc(C)cc(=O)[nH]2)c1C` had a melting point of 231 to 233 °C.
Consider `N#Cc1ccc(-c2cnc3c(c2)N(Cc2ccccc2)C(=O)CN3)cn1`, for which the melting point was greater than 200 °C.
Take `COc1ccc(C2(C#N)CCC(=O)CC2)cc1`: the melting point lay in the range of 77.5 to 79.5 °C.
In turn, `CCCCCCCCCCCCCCCc1cc2c(C(=O)OCC)cccc2[nH]1` showed a melting point of 42 to 45 °C.
The compound `COC(=O)c1ccccc1C(=O)c1ccc(CBr)cc1` yielded a melting point of 88.2 to 91.5 °C.
The compound `CCCCCCCCCCCCNC(=O)CS(=O)(=O)Nc1c(C(C)C)cccc1C(C)C` displayed a melting point of 83 to 85 °C.
As for `Cn1cc(S(=O)(=O)NCc2ccccc2)c(=O)c2ccc(Cl)cc21`, the melting point lay in the range of 208 to 210 °C.
Compound `COc1ccc(CCN(C)CCc2ccc(NC(=O)c3cccc4c(=O)c5ccccc5sc34)cc2)cc1OC` had a melting point of 154 °C.
Take `N=C(Cc1ccccc1-n1cnc2cnc3ccc(-c4ccccc4)cc3c21)NO`: the melting point lay in the range of 253 to 254 °C.
The compound `COc1ccc(-c2ccc3c(c2)C=C(C(=O)Nc2ccc(CN(C)C4CCC(=O)CC4)cc2)CCS3)cc1` returned a melting point of 133 to 139 °C.
Turning to `O=c1[nH]c2ccc(-c3cccc([N+](=O)[O-])c3)cc2n1Cc1ccccc1`, the melting point lay within 202 to 203 °C.
In turn, `COc1ccc(OCC2CN(C(C)CO)C(=O)O2)cc1` (centres undefined) came in with a melting point of 62 to 67 °C.
`Fc1cccc(COc2ccc(Nc3ncnc4cc(C#Cc5ccccn5)sc34)cc2Cl)c1` registered a melting point of 242 °C.
The compound `CCc1cccc(CC(=O)O)c1OCCCc1cn(-c2ncc(Cl)cc2Cl)nc1C(C)C` showed a melting point of 93 to 95 °C.
For the compound `CCON=Cc1cc(-n2c(=O)cc(C(F)(F)F)[nH]c2=O)c(Cl)cc1Cl`, the melting point is 205 to 209 °C.
Compound `O=c1ccn(-c2ccc(N3CCOCC3)cc2)nc1-c1ccnn1-c1ccccc1` showed a melting point of 205 to 206 °C.
`COC(=O)CCCc1nc2[nH]c3ccccc3c2c(=O)[nH]1` came in with a melting point of 258 °C.
The compound `COC(=O)C(CCS(N)(=O)=O)c1ccc([N+](=O)[O-])cc1F` (centres undefined) came in with a melting point of 99 to 101 °C.
In turn, `Cc1cccc(C)c1CNc1cc(Br)cc2c1nc(N(C)C)n2C` registered a melting point of 157 to 158 °C.
In turn, `N#CC(C#N)=C1Sc2nc3cc(Cl)c([N+](=O)[O-])cc3nc2S1` yielded a melting point of 297 to 299 °C.
The figure for `Cc1cc(C2=NN(C(=S)NN)[C@H](C)Cc3cc4c(cc32)OCO4)ccc1[N+](=O)[O-]` is 109 to 115 °C; for `CC(=O)OCCSC(F)(F)C(O)(Cn1cncn1)c1ccc(F)cc1F` (centres undefined) it is 79 to 82 °C.
With `Oc1ncnc2nc(-c3cccc(Cl)c3)cnc12`, the melting point is greater than 315 °C.
Consider `O=C(NCc1ccc2c(c1)-c1[nH]nc(-c3ccsc3)c1C2)c1cccnc1`, for which the melting point is 286 °C.
The figure for `COC(=O)Cc1cccc(NC(=O)NC2c3cc(C#N)ccc3OC(C)(C)C2O)c1` (centres undefined) is 72 to 75 °C; for `CCOC(=O)COc1cc(OCc2ccccc2)ccc1C(=O)CC` it is 81.5 to 82 °C; for `Brc1ccc(N=NSc2ccccc2)c2ccccc12` it is 57 to 58 °C.
For `Cc1nc(-c2ccc([N+](=O)[O-])c(C)c2)c[nH]1` the value was 158 to 160 °C; for `CCCCCCOP(=O)(OCCCCCC)c1ccc(NC(=O)c2cccc([N+](=O)[O-])c2)cc1`, 98 °C.
With `COc1ccc(-n2nc(CCCO)c(Cl)c2-c2ccc(Cl)cc2)cc1`, the melting point lay within 113 to 115 °C.
For `COCc1nnc(-c2cccnc2)n1-c1c(Cl)c(C)cc2nc(OC)c(OC)nc12` the value was 183 to 184 °C; for `C[C@@H](n1cnc2cc(-c3ccc(C(=N)NCCN)cc3)sc2c1=O)[C@](O)(Cn1cncn1)c1ccc(F)cc1F`, 154 to 161 °C.
For the compound `COC(=O)C(C)(C)Cc1c(C(=O)c2ccc(Cl)cc2)c2ccc(OC(=O)c3ccc(Cl)cc3)cc2n1C`, the melting point came to 138 °C.
For `CC(CCCc1ccc(F)cc1)c1cc(NS(C)(=O)=O)c2c(c1)OC(C)(C)c1ccncc1-2` (centres undefined), the melting point fell in the range of 208 to 209 °C.
Take `O=C(O)/C=C/c1cc(OC2CCOCC2)nn1Cc1ccc(Cl)cc1Cl`: the melting point is 191 to 192 °C.
The compound `CCCCCCCNC(=O)Nc1ccccc1C(=O)NCCSc1nc(-c2ccccc2)c(-c2ccccc2)[nH]1` displayed a melting point of 285 to 288 °C.
As to `CNc1c([N+](=O)[O-])cc(C)cc1[N+](=O)[O-]`, the melting point was determined as 132 °C.
In turn, `CC(C)(C)NC(=O)CN1C(=O)C(NC(=O)Nc2cccc(Cl)c2)CC(C2CCCCC2)c2ccccc21` (centres undefined) had a melting point of 223 to 226 °C.
The compound `Cc1noc(NS(=O)(=O)c2ccsc2-c2ccccc2)c1Br` returned a melting point of 86 to 89 °C.

The values above are taken from a melting point compilation (Tetko et al.; mined from patent text by program, amines drawn as free bases though some values may be those of a salt).
